Measured values as given in patent US20220194952A1, “TETRAPYRROLIC CONJUGATES AND USES THEREOF FOR IMAGING” (Health Research, Inc., priority 2019, published 2022).

How the values were obtained:
[1] = Absorbance (UV-VIS) in methanol; type: physicochemical; conditions: ε665 for 2 (peak 660 nm), ε785 for 4 (peak 785 nm)
Method: Absorbance of 2 and 4 was measured using different concentrations in methanol on UV-VIS and indicates far-red peaks at 660 nm and 785 nm, with extinction coefficients ε665=47,500 L·mol^−1 cm^−1 and ε785=18,100 L·mol^−1 cm^−1 respectively.
Chemistry Methods: All reactions were carried out in heat gun-dried glassware under an atmosphere of nitrogen and magnetic stirring. Thin layer chromatography (TLC) was done on pre-coated silica gel sheets (layer thickness 0.2 mm). Column chromatography was performed either using silica gel 60 (70-230 mesh) or neutral alumina grade III. In some cases preparative TLC was used for the purification of compounds. Purity of the compounds was ascertained by TLC and HPLC analysis. All compounds including the intermediates were >95% pure. UV-visible spectra were recorded on FT UV-visible spectrophotometer using methanol as a solvent. Mass spectrometry analyses were performed at the Mass Spectrometry Facility, University at Buffalo, N.Y. Compounds 1 and 2 were synthesized by following the methodologies previously described.

[2] = Singlet oxygen phosphorescence at 1270 nm, methanol, pulsed laser 532 nm; type: physicochemical; conditions: near 5 μM, equi-absorbant at 532 nm, excited at 532 nm
Method: The photosensitizers, e. g., HPPH (control), 2 and 4 were individually dissolved in methanol (concentration: 5 μM) in polystyrene cuvettes and excited at 532 nm using a pulsed laser. Phosphorescence of singlet oxygen was detected at 1270 nm.
Before evaluating the imaging and photosensitizing potential of the chlorin 4 with extended ring system, its singlet oxygen producing ability was compared with the related chlorin 2. In brief, both compounds were individually dissolved in methanol in equi-absorbant (at 532 nm) concentrations near 5 μM and excited at 532 nm using a pulsed laser. The phosphorescence of singlet oxygen was detected at 1270 nm. From the results summarized in FIG. 4, it can be seen that compared to chlorin 2 with a five-member isocyclic ring, the related analog 4 with an extended ring system had remarkably lower singlet oxygen producing ability. Singlet oxygen quantum yields were φ=0.29 and φ=0.02 respectively, compared to HPPH φ=0.45.

[3] = Photobleaching in 17% bovine calf serum; type: physicochemical; conditions: 660 nm
Method: Photobleaching was performed in quartz cuvettes on a 5 μM solution of 2 and a 25 μM solution of 4 in 17% BCS. The higher molarity was chosen to approximate the absorbance of 2 at 5 μM. A dye laser was used at dose rate 75 mW/cm^2, and excitation wavelength for 2 was 660 nm and for 4 was 785 nm.
In photodynamic therapy, photobleaching is the photochemical alteration of a chromophore or a fluorophore molecule such that could either permanently is unable to fluoresce or alter its fluorescence characteristics. This is caused by cleaving of the covalent bonds or non-specific reaction between the reactive oxygen species (e.g., singlet oxygen) and the molecule. These […] species formed by conversion of the molecular oxygen present in tumor to singlet oxygen by exposing the photosensitizer with light at an appropriate wavelength. The rate of photobleaching of the PS should depend (a) availability of oxygen, (b) photostability of PS and finally (c) the singlet oxygen (or other reactive oxygen species) producing ability of the PS.
To investigate the photobleaching characteristics of the photosensitizers, compounds 2 and 4 in equimolar concentrations (5 μM) were taken in quartz cuvettes in 17% bovine calf serum. Dye lasers with appropriate wavelength (2: 660 nm and 4: 785 nm) were used at a dose rate of 75 mW/cm^2. Both the compounds in formulated forms were irradiated with light and the absorption spectra at their long wavelength absorptions were measured with time. The decay in absorbance was plotted against the time of light exposure.

Colon26 cells = test: In vitro cytotoxicity (PDT) MTT assay; type: cell-based
Method: Drug concentrations were increased 10× (0.25 to 32.0 μM) and a significant cytotoxicity was observed only at high concentrations at the highest light dose.
Assessment of cell growth following treatment with compound solutions alone and after light exposure was determined by a colorimetric assay that measured the reduction of yellow 3-(4,5-dimethythiazol-2-yl)-2,5-diphenyl tetrazolium bromide (MTT) by mitochondrial succinate dehydrogenase.
Briefly cells were plated into 96 well plates, allowed to adhere to the plate and are treated with a range of compound concentrations for various lengths of time. The light source consisted of dye lasers (375; Spectra-Physics, Mt. View, Calif.) pumped by an argon-ion laser (either 171 or 2080; Spectra-Physics). The dye lasers were tuned to the appropriate wavelength for the compound being tested. Total light doses were ranged from 0.125 to 1.0 J/cm^2 at a fluence rate of 3.2 mW/cm^2. At 48 hours post PDT treatment, MTT was added. The solubilized formazan product was measured spectro-photometrically using a BIOTEK EL-800 plate reader. Data were processed using GEN5 software. A medium blank value was subtracted from all samples and Optical Density (O.D.) values of treated cells were divided by mean O.D. value of untreated cells for each light dose).
Colon26 cells were plated and allowed to adhere for 4 hours, then the photosensitizer was added and incubated at 37° C. for 24 hours. Plates were irradiated with 789 nm light from a dye laser at 3.2 mW/cm^2 for a total dose of 0.25 to 1.0 Joule/cm^2.

Colon26 tumors [4] = test: In vivo whole body tumor fluorescence imaging (IVIS Spectrum); design: species or system BALB/c mice; conditions: non-radioactive analogs, i.v., post-injection
Method: Before evaluating in vivo PDT efficacy of PS 4 by exposing the tumors with light, the time point for optimal tumor uptake of PS was determined by whole body fluorescence imaging of tumored mice at various time points after injecting the PS.
The multi-spectral imaging system, IVIS Spectrum (Perkin-Elmer) along with Living Image (image acquisition and analysis software) was used. IVIS Spectrum has the capability to use either trans-illumination (from the bottom) or epi-illumination (from the top) to illuminate in vivo fluorescent sources. […] Regions of interest (ROI) were defined for areas of compound accumulation (tumor, liver, skin) and total and average signal within the region were recorded. Fluorescent intensity is expressed as the total radiant efficiency ([p/s]/[μW/cm^2]. Results are expressed as mean total radiant efficiency of three mice±SD.

Colon26 tumors [5] = test: In vivo PDT efficacy; design: species or system BALB/c mice; conditions: dose 1 μmol/kg; light 135 J/cm^2, 75 mW/cm^2 at 24 h postinjection; 5 mice/group
Method: Tumors were exposed to light (135 J/cm^2, 75 mW/cm^2) at 24 h (hour) postinjection (optimal time for tumor uptake for both the PSs).
For determining the in vivo imaging and therapeutic potential of 2, BALB/c mice (5-10 mice/group) bearing Colon26 tumors were used. In brief, 1×10^6 Colon26 cells were injected in mice subcutaneously. The tumors were left to grow for 1 week until they achieve the desired size (3-5 mm) for treatment. The photosensitizer was injected intravenously following the animal protocol approved by RPCI IACUC committee. Irradiance occurred 24 hours after i. v. injection; light dose was 135 J/cm^2 at a dose rate of 75 mW/cm^2 using the near-IR wavelengths of interest: 665 nm or 789 nm.
Two axes of the tumor (L, longest axis; W, shortest axis) were measured in millimeters with the aid of a Vernier caliper. Tumor weight (mg) was estimated as a formula: tumor weight=1/2 (L×W2). Tumor measurements were taken daily for the first 10 days and at least three tine a week for the first 4 weeks of post therapy and twice a week thereafter. Endpoints were 400 mm^3 tumor volume or 60 days.

Colon26 tumors [6] = test: In vivo biodistribution of 124I-analogs; design: species or system BALB/c mice; conditions: for organ distribution (in words): ethanol/PBS formulation, i.v., 24, 48, 72 hours
Method: From left to right, each group is 24 hours 2, 48 hours 2, 72 hours 2, 24 hours 6, 48 hours 6, and 72 hours 6.
The labeled product, 6, was collected and dried.

Colon26 tumors [7] = test: PET imaging of 124I-analogs; conditions: ethanol/PBS formulation, 25 μCi/mouse
Method: Compounds were resuspended in 10% ethanol saline, and ˜50 μCi were injected per mouse.
Final product was formulated in 10% ethanol in saline for injection in mice for PET imaging and biodistribution studies. Formulations noted as Pluronic® were formulated in 2% Pluronic® F-127 in saline. Mice were injected with 50 μCi (˜100 μL) for biodistribution, or 100 μCi (˜200 μL) for PET imaging.

## CCC1=C(C)c2cc3[nH]c(cc4nc(c5c6[nH]c(cc1n2)c(C)c6C(=O)C5)[C@@H](CCC(=O)OC)[C@@H]4C)c(C)c3C(C)OCc1cccc([124I])c1 (stereo partly shown) [Compound 2, methyl 3-[1′-(m-iodobenzyloxy)ethyl]-3-devinyl pyropheophorbide]
[1]
  extinction coefficient at far-red absorbance peak: 47,500 L·mol^−1 cm^−1
[2]
  Singlet oxygen quantum yield φ: 0.29
[3]; 5 μM in 17% BCS, 75 mW/cm^2
  photobleaching experimental endpoint reached: 20%
[3]; 17% bovine calf serum, 5 μM, 75 mW/cm^2, by three hours
  fraction photobleached: 80%
Colon26 cells; 0.25 to 32.0 μM, significant cytotoxicity only at high concentrations at the highest light dose (FIG. 8B)
  in vitro cytotoxicity at 10× increased drug concentrations (in words): toxic effects only at high concentrations
Colon26 cells; variable drug concentrations, fixed light dose 1.0 J/cm^2 (FIG. 8A)
  in vitro cytotoxicity (in words): light dose-dependent cytotoxicity
Colon26 tumors [4]
  time of optimal uptake in tumor (fluorescence imaging): 24 h
Colon26 tumors [5]
  tumor cure after PDT: 80%

## CCC1=C(C)c2cc3[nH]c(cc4nc(c5c6[nH]c(cc1n2)c(C)c6C(=O)C5)[C@@H](CCC(=O)OC)[C@@H]4C)c(C)c3C(C)OCc1cccc(I)c1 (stereo partly shown) [Compound 2a, 3-(1′-m-iodobenzyloxy) ethyl-3-devinyl-pyropheo phorbide-a methyl ester, reference compound]
Colon26 tumors [6]
  organ distribution (in words): significantly high uptake in spleen
Colon26 tumors [7]
  time of maximum tumor uptake (PET): 24 h

## CCC1=C(C)c2cc3[nH]c(cc4nc(c5c6[nH]c(cc1n2)c(C)c6C=C(OC)C5=O)[C@@H](CCCC(=O)OC)[C@@H]4C)c(C)c3[C@H](C)OCc1cccc([124I])c1 [Compound 6, Methyl 3-[1′-(m-^124iodobenzyloxy)ethyl]-3-devinyl-13^3-keto-13^2methoxycyclohexene (verdin)]
Colon26 tumors [6]; BALB/c mice implanted with Colon26 tumors, i.v.
  tumor uptake: > 9 % of the injected dose
Colon26 tumors [6]
  organ distribution (in words): significantly higher uptake in tumor than other organs

## HPPH
[2]
  Singlet oxygen quantum yield φ: 0.45
